{"source": "PubChem BioAssay (NCI)", "experiment_in_all_cases": "growth of human tumour cells (NCI), 48 h", "key": {"[1]": {"system": "786-0 renal"}, "[2]": {"system": "A549 NSCLC"}, "[3]": {"system": "ACHN renal"}, "[4]": {"system": "BT-549 breast"}, "[5]": {"system": "CAKI-1 renal"}, "[6]": {"system": "CCRF-CEM leukemia"}, "[7]": {"system": "COLO 205 colon"}, "[8]": {"system": "DU-145 prostate"}, "[9]": {"system": "EKVX NSCLC"}, "[10]": {"system": "HCT-116 colon"}, "[11]": {"system": "HCT-15 colon"}, "[12]": {"system": "HL-60(TB) leukemia"}, "[13]": {"system": "HOP-62 NSCLC"}, "[14]": {"system": "HOP-92 NSCLC"}, "[15]": {"system": "HS 578T breast"}, "[16]": {"system": "HT29 colon"}, "[17]": {"system": "IGROV1 ovarian"}, "[18]": {"system": "K-562 leukemia"}, "[19]": {"system": "KM12 colon"}, "[20]": {"system": "LOX IMVI melanoma"}, "[21]": {"system": "M14 melanoma"}, "[22]": {"system": "MALME-3M melanoma"}, "[23]": {"system": "MCF7 breast"}, "[24]": {"system": "MDA-MB-231 breast"}, "[25]": {"system": "MDA-MB-435"}, "[26]": {"system": "MOLT-4 leukemia"}, "[27]": {"system": "NCI-H226 lung"}}, "note": "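Compound exposure: 48 hours, 5 concentrations, 96-well plates. Here, GI50 denotes the concentration required for 50% inhibition of growth. TGI is the concentration that stops growth completely.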"}
{"smiles": "COc1ccc(/C=C\\[N+](=O)[O-])cc1OC", "values": [{"measurement": "GI50", "setting": "[1]", "result": 1900, "unit": "nM"}, {"measurement": "TGI", "setting": "[1]", "result": 3.87, "unit": "µM"}, {"measurement": "GI50", "setting": "[2]", "result": 1940, "unit": "nM"}, {"measurement": "TGI", "setting": "[2]", "result": 4.97, "unit": "µM"}, {"measurement": "GI50", "setting": "[3]", "result": 3.68, "unit": "µM"}, {"measurement": "TGI", "setting": "[3]", "result": 13.9, "unit": "µM"}, {"measurement": "GI50", "setting": "[4]", "result": 2260, "unit": "nM"}, {"measurement": "TGI", "setting": "[4]", "result": 5.21, "unit": "µM"}, {"measurement": "GI50", "setting": "[5]", "result": 1800, "unit": "nM"}, {"measurement": "TGI", "setting": "[5]", "result": 4.84, "unit": "µM"}, {"measurement": "GI50", "setting": "[6]", "result": 3.2, "unit": "µM"}, {"measurement": "TGI", "setting": "[6]", "result": 22.7, "unit": "µM"}, {"measurement": "GI50", "setting": "[7]", "result": 5.1, "unit": "µM"}, {"measurement": "TGI", "setting": "[7]", "result": 18, "unit": "µM"}, {"measurement": "GI50", "setting": "[8]", "result": 3.1, "unit": "µM"}, {"measurement": "TGI", "setting": "[8]", "result": 11.9, "unit": "µM"}, {"measurement": "GI50", "setting": "[9]", "result": 15.6, "unit": "µM"}, {"measurement": "TGI", "setting": "[9]", "result": 38.1, "unit": "µM"}, {"measurement": "GI50", "setting": "[10]", "result": 1370, "unit": "nM"}, {"measurement": "TGI", "setting": "[10]", "result": 2850, "unit": "nM"}, {"measurement": "GI50", "setting": "[11]", "result": 2190, "unit": "nM"}, {"measurement": "TGI", "setting": "[11]", "result": 6.45, "unit": "µM"}, {"measurement": "GI50", "setting": "[12]", "result": 2940, "unit": "nM"}, {"measurement": "TGI", "setting": "[12]", "result": 7.79, "unit": "µM"}, {"measurement": "GI50", "setting": "[13]", "result": 12, "unit": "µM"}, {"measurement": "TGI", "setting": "[13]", "result": 29.2, "unit": "µM"}, {"measurement": "GI50", "setting": "[14]", "result": 12.4, "unit": "µM"}, {"measurement": "TGI", "setting": "[14]", "result": 48.4, "unit": "µM"}, {"measurement": "GI50", "setting": "[15]", "result": 2920, "unit": "nM"}, {"measurement": "TGI", "setting": "[15]", "result": 24.7, "unit": "µM"}, {"measurement": "GI50", "setting": "[16]", "result": 1870, "unit": "nM"}, {"measurement": "TGI", "setting": "[16]", "result": 5.87, "unit": "µM"}, {"measurement": "GI50", "setting": "[17]", "result": 1820, "unit": "nM"}, {"measurement": "TGI", "setting": "[17]", "result": 4.46, "unit": "µM"}, {"measurement": "GI50", "setting": "[18]", "result": 2360, "unit": "nM"}, {"measurement": "TGI", "setting": "[18]", "result": "> 100", "unit": "µM"}, {"measurement": "GI50", "setting": "[19]", "result": 2730, "unit": "nM"}, {"measurement": "TGI", "setting": "[19]", "result": 7.54, "unit": "µM"}, {"measurement": "GI50", "setting": "[20]", "result": 1660, "unit": "nM"}, {"measurement": "TGI", "setting": "[20]", "result": 3.45, "unit": "µM"}, {"measurement": "GI50", "setting": "[21]", "result": 1820, "unit": "nM"}, {"measurement": "TGI", "setting": "[21]", "result": 4.18, "unit": "µM"}, {"measurement": "GI50", "setting": "[22]", "result": 22.6, "unit": "µM"}, {"measurement": "TGI", "setting": "[22]", "result": 43.5, "unit": "µM"}, {"measurement": "GI50", "setting": "[23]", "result": 3.05, "unit": "µM"}, {"measurement": "TGI", "setting": "[23]", "result": 15.9, "unit": "µM"}, {"measurement": "GI50", "setting": "[24]", "result": 3.73, "unit": "µM"}, {"measurement": "TGI", "setting": "[24]", "result": 13.1, "unit": "µM"}, {"measurement": "GI50", "setting": "[25]", "result": 2460, "unit": "nM"}, {"measurement": "TGI", "setting": "[25]", "result": 9.38, "unit": "µM"}, {"measurement": "GI50", "setting": "[26]", "result": 4.1, "unit": "µM"}, {"measurement": "TGI", "setting": "[26]", "result": 38, "unit": "µM"}, {"measurement": "GI50", "setting": "[27]", "result": 22.9, "unit": "µM"}, {"measurement": "TGI", "setting": "[27]", "result": 88.8, "unit": "µM"}]}
